Patent US20260000781A1, “FC CONJUGATES INCLUDING AN INHIBITOR OF CD73 AND USES THEREOF” (Cidara Therapeutics, Inc., priority 2022, published 2026)

How the values were obtained:
[1] = test system: human T cells; assay: Rescue of T cell activation in the presence of AMP; assay type: cell-based; details: CD25, 72 h
Description: Human T cells (cat. no. 72400, Stem Cell Tech) were activated with anti-CD3/CD28/CD2 T cell activator (cat. no. 10970, Stem Cell Technologies) and seeded at 1×10^5 cells/well in ImmunoCult™—XF T Cell Expansion medium into 96-well tissue culture-treated plates. Test articles were added at concentrations ranging from 1 to 10,000 nM. Next, adenosine 5′-monophosphate (AMP; cat. no 01930, Sigma) was added at 30 μM or 100 μM. Cells, test articles and AMP were incubated at 37° C., 5% CO2 for 72 h. After 72 h, cell supernatant was removed, and T cells were washed in staining buffer prior to staining for CD25 with anti-human CD25 PE antibody (cat. no 60153PE, Stem Cell Technologies, clone 2A3). After staining, cells were washed in staining buffer. 10,000 events were collected on flow cytometer Northern Lights (Cytek). Percent rescue versus concentration were plotted using GraphPad Prism Version 8 and EC50's calculated using nonlinear regression analysis ([inhibitor]vs normalized response).

[2] = test system: colon tumor cell line CT26; assay: Syngeneic mouse tumor efficacy model with colon tumor cell line CT26; assay type: in vivo; details: CT26, Day 10, 210 mg/kg/wk (30 mg/kg IP daily)
Description: Tumor efficacy models were conducted in female BALB/c mice (Charles River; 18-22 g) injected with the colon tumor cell line CT26 (ATCC; CRL-2638). Briefly, CT26 cells freshly prepared and resuspended in PBS were injected SC into the shaved right flank of mice. Tumors were allowed to grow until they became measurable (˜50 mm^3) (typically after 7-10 days of growth). Mice were then randomized so each starting group had approximately the same tumor group average (typical+/−5 mm^3) and treatment initiated. Each group consisted of 10 animals. Conjugate 133a was dosed at 20 mg/kg via intraperitoneal (IP) injection on MWF, for 2 weeks. […] The study also included a vehicle (PBS) only treatment group with the aforementioned schedule. After initiation of treatment tumors were measured 3×/week with tumor volumes calculated based on the following formula: (width×width×length)/2. All tumors were monitored until the maximum allowed volume was reached (=>2,000 mm^3).
Tumor efficacy models were conducted in female BALB/c mice (Charles River; 18-22 g) injected with the colon tumor cell line CT26 (ATCC; CRL-2638). […] After initiation of treatment tumors were measured 3×/week with tumor volumes calculated based on the following formula: (width×width×length)/2. All tumors were monitored until the maximum allowed volume was reached (=>2,000 mm^3). […]

[3] = test system: breast tumor cell line EMT-6; assay: Syngeneic mouse tumor efficacy model with breast tumor cell line EMT-6; assay type: in vivo; details: EMT-6, IP
Description: Tumor efficacy models were conducted in female BALB/c mice (Charles River laboratories; 18-22 g) injected with the breast tumor cell line EMT-6 (ATCC; CRL-2755). Briefly, EMT-6 cells propagated and prepared by standard methods were resuspended in PBS and injected subcutaneously (in a 100 μL volume) into the shaved right flank of mice. Five days after cell injection, and prior to measurable tumor formation, treatment was initiated via IP injection (10 mL/kg) of test articles or controls. […] The test article was Conjugate 172a dosed at 30 mg/kg twice weekly, for 3 weeks. The final group consisted of mice dosed with both the anti-PD-1 mAb and Conjugate 172a at 30 mg/kg using the respective dosing schedules for each.
Each group consisted of 15 animals and tumors were measured 3× weekly with calipers on Mon/Wed/Fri. Tumor volumes were calculated based on the following formula: [(width×width×length)/2]. All tumors were monitored until the maximum allowed volume was reached (=>2,000 mm^3).
Although occasionally an animal would be removed from study if the tumor grew internally causing undo stress to the animal, or the inability to measure the tumor accurately. Data was analyzed and graphed with Graphpad Prism 6.00. Where conducted, statistical evaluation used the Mann-Whitney variation of the t-test. […]

Row | EC50 ([1]; 30 μM AMP) [nM] | EC50 ([1]; 100 μM AMP) [nM] | Compound | reduction in tumor volume compared to the vehicle group [2] [%] | % Complete regression (Day 36) ([3]; 15 animals per group, regimens as for % tumor reduction) [%] | % Tumor reduction (Day 22) ([3]; Conjugate 172a 30 mg/kg twice weekly for 3 weeks, AB680 30 mg/kg daily, anti-PD-1 mAb on Day 0, 2, 4, 7, 9, 12) [%]
1 | 2.88 | 8.37 | COC[C@](CO)(OC[C@H]1O[C@@H](n2ncc3c(NC4CCCC4)nc(Cl)nc32)[C@H](O)[C@@H]1O)P(=O)(O)O [OP5244] | – | – | –
2 | – | – | C[C@H](Nc1cc(Cl)nc2c1cnn2[C@@H]1O[C@H](COP(=O)(O)CP(=O)(O)O)[C@@H](O)[C@H]1O)c1ccccc1F [AB680] | 50.7 | 6.7 | 0
